# Key:
# [1] = test system: IL-1β cytokine output from THP-1s; assay: THP-1 AlphaLISA IL-1β cytokine assay; format: cell-based, human; settings: Homo sapiens, THP-1, PMA-differentiated THP-1 cells, LPS 24 hr then Nigericin 1 hour; read-out: IL-1β (IC50)
# Outline: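 PMA-differentiated (72 h) THP-1 cells pretreated 30 min with compound, LPS-stimulated 24 h, then nigericin 1 h at 37 °C. Supernatant IL-1β and IL-6 by AlphaLISA; % inhibition normalised to ±LPS controls, IC50 from concentration-response curves.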
# [2] = test system: IL-6 cytokine output from THP-1s; assay: THP-1 AlphaLISA IL-6 cytokine assay; format: cell-based, human; settings: Homo sapiens; PMA-differentiated THP-1 cells, LPS 24 hr then Nigericin 1 hour
# Procedure: Measuring Inhibitory Effects on IL-1β and IL-6 Cytokine Output from THP-1s
# The cytokine inhibition profiles of compounds of formula (IW-1) were determined in a differentiated THP-1 cell assay. All assays were performed in RPMI-1640 growth medium (Gibco), supplemented with 10% fetal bovine serum (FBS; Gibco), 1% penicillin-streptomycin and 1% sodium pyruvate unless specified otherwise. The IL-1β and IL-6 cytokine inhibition assays were each run in a background of differentiated THP-1 cells as described below. All reagents described were from Sigma-Aldrich unless specified otherwise. Compounds were prepared as 10 mM DMSO stocks.
# THP-1 cells were expanded as a suspension up to 80% confluence in appropriate growth medium. Cells were harvested, suspended, and treated with an appropriate concentration of phorbol 12-myristate 13-acetate (PMA) over a 72 hr period (37° C./5% CO2).
# Following 72 hrs of THP-1 cell incubation, cellular medium was removed and replaced with fresh growth media containing 1% of FBS. Working concentrations of compounds were prepared separately in 10% FBS treated growth medium and pre-incubated with the cells for 30 minutes (37° C./5% CO2). Following the 30 minute compound pre-incubation, THP-1s were treated with an appropriate concentration of LPS and the THP-1s were subsequently incubated for a 24 hr period (37° C./5% CO2). An appropriate final concentration of Nigericin was then dispensed into the THP-1 plates and incubated for 1 hour (37° C./5% CO2) before THP-1 supernatants were harvested and collected in separate polypropylene 96-well holding plates.
# Reagents from each of the IL-1β and IL-6 commercial kits (Perkin Elmer) were prepared and run according to the manufacturer's instructions. Subsequently, fluorescence signal detection in a microplate reader was measured (EnVision® Multilabel Reader, Perkin Elmer).
# Percentage inhibition was calculated per cytokine by normalising the sample data to the high and low controls used within each plate (+/−LPS respectively). Percentage inhibition was then plotted against compound concentration and the 50% inhibitory concentration (IC50) was determined from the resultant concentration-response curve.
Structure (SMILES),IC50 [1] [µM],IC50 [2] [µM]
"C=C(CC(=O)O[C@H](C)CCCCCC)C(=O)OCCS(C)(=O)=O [Example 55, (R)-1-(2-(methylsulfonyl)ethyl) 4-(octan-2-yl) 2-methylenesuccinate]",5.1,3.8
"C=C(CC(=O)O[C@H](C)CCCCCC)C(=O)OC(C)CS(C)(=O)=O (stereo partly drawn) [Example 56, 1-(1-(methylsulfonyl)propan-2-yl) 4-((R)-octan-2-yl) 2-methylenesuccinate]",7.9,3.5
"C=C(CC(=O)O[C@H](C)CCCCCC)C(=O)OC1CS(=O)(=O)C1 [Example 57, (R)-1-(1,1-dioxidothietan-3-yl) 4-(octan-2-yl) 2-methylenesuccinate]",4.4,2.6
"C=C(CC(=O)O[C@H](C)CCCCCC)C(=O)OC1CN(C(C)=O)C1 [Example 58, (R)-1-(1-acetylazetidin-3-yl) 4-(octan-2-yl) 2-methylenesuccinate]",6.5,3.8
"C=C(CC(=O)OC1CCCCC1)C(=O)OC(C)CS(C)(=O)=O (stereo not shown) [Example 59, 4-cyclohexyl 1-(1-(methylsulfonyl)propan-2-yl) 2-methylenesuccinate]",13.3,8.8
"C=C(CC(=O)OC1CCCCC1)C(=O)OC1CS(=O)(=O)C1 [Example 60, 4-cyclohexyl 1-(1,1-dioxidothietan-3-yl) 2-methylenesuccinate]",1.9,1.4
"C=C(CC(=O)OC1CCCCC1)C(=O)OCCS(C)(=O)=O [Example 61, 4-cyclohexyl 1-(2-(methylsulfonyl)ethyl) 2-methylenesuccinate]",6.1,5
"C=C(CC(=O)OC1CCCCCCC1)C(=O)OC(C)CS(C)(=O)=O (stereo not shown) [Example 62, 4-cyclooctyl 1-(1-(methylsulfonyl)propan-2-yl) 2-methylenesuccinate]",3.5,2.8
"C=C(CC(=O)OC1CCCCCCC1)C(=O)OC1CN(C(C)=O)C1 [Example 63, 1-(1-acetylazetidin-3-yl) 4-cyclooctyl 2-methylenesuccinate]",1.3,2.5
"C=C(CC(=O)OC1CCCCC1)C(=O)OC1CCOCC1 [Example 64, 4-cyclohexyl 1-(tetrahydro-2H-pyran-4-yl) 2-methylenesuccinate]",10.2,12.6
"C=C(CC(=O)OC1CCCCC1)C(=O)OCCN1CCCC1=O [Example 65, 4-cyclohexyl 1-(2-(2-oxopyrrolidin-1-yl)ethyl) 2-methylenesuccinate]",22.6,22.4
"C=C(CC(=O)O[C@@H](C)CCCCCC)C(=O)OC1CN(C(C)=O)C1 [Example 66, (S)-1-(1-acetylazetidin-3-yl) 4-(octan-2-yl) 2-methylenesuccinate]",2.3,2.5
"C=C(CC(=O)O[C@@H](C)CCCCCC)C(=O)OC1CS(=O)(=O)C1 [Example 67, (S)-1-(1,1-dioxidothietan-3-yl) 4-(octan-2-yl) 2-methylenesuccinate]",5.7,4.8
"C=C(CC(=O)OCCCCCCCC)C(=O)OC1(C)COC1 [Example 68, 1-(3-methyloxetan-3-yl) 4-octyl 2-methylenesuccinate]",24,9.1
"C=C(CC(=O)OC1CCCCCCC1)C(=O)OC1CCOCC1 [Example 70, 4-cyclooctyl 1-(tetrahydro-2H-pyran-4-yl) 2-methylenesuccinate]",6.1,9.4
"C=C(CC(=O)OC1CCCCCCC1)C(=O)OCCN1CCCC1=O [Example 71, 4-cyclooctyl 1-(2-(2-oxopyrrolidin-1-yl)ethyl) 2-methylenesuccinate]",8.7,9.6
"C=C(CC(=O)O[C@H](C)CCCCCC)C(=O)OCCN1CCCC1=O [Example 72, (R)-4-(octan-2-yl) 1-(2-(2-oxopyrrolidin-1-yl)ethyl) 2-methylenesuccinate]",11.4,8.2

# — patent publication US12390437B2, “Itaconic acid derivatives and uses thereof intreating an inflammatory disease or a disease associated with an undesirable immune response” (Sitryx Therapeutics Limited, priority 2019, dated 2025)
